System: 521955-158-R2-J5-PDC complex spheroid growth
Test: Anticancer human tumor 521955-158-R2-J5-PDC patient-derived pancreatic carcinoma cell line growth inhibition [AhR]
Conditions: for IC50: curve of first compound; for viability, T/C: stronger effect = lower value
Method in brief: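 Complex tumor spheroids co-cultured with HUVEC and human MSC stroma; AhR antagonists tested in combination with standard-of-care and investigational agents. Top concentration at or near clinical Cmax (else 10 microM), half-log dilutions; growth expressed as percent test/control.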

[1] = second compound 0.1 µM, first compound 0.0316 µM
[2] = second compound 0.1 µM, first compound 0.1 µM
[3] = second compound 0.1 µM, first compound 0.316 µM
[4] = second compound 0.1 µM, first compound 1 µM
[5] = second compound 0.316 µM, first compound 0.0316 µM
[6] = second compound 0.316 µM, first compound 0.1 µM
[7] = second compound 0.316 µM, first compound 0.316 µM
[8] = second compound 0.316 µM, first compound 1 µM
[9] = second compound 1 µM, first compound 0.0316 µM
[10] = second compound 1 µM, first compound 0.1 µM
[11] = second compound 1 µM, first compound 0.316 µM
[12] = second compound 1 µM, first compound 1 µM
[13] = second compound 3.16 µM, first compound 0.0316 µM
[14] = second compound 3.16 µM, first compound 0.1 µM
[15] = second compound 3.16 µM, first compound 0.316 µM
[16] = second compound 3.16 µM, first compound 1 µM
[17] = second compound 10 µM, first compound 0.0316 µM
[18] = second compound 10 µM, first compound 0.1 µM
[19] = second compound 10 µM, first compound 0.316 µM
[20] = second compound 10 µM, first compound 1 µM
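Throughout, for viability, T/C: spheroids mix tumor cells with HUVEC endothelium and human MSC stroma; luminescence taken as viability surrogate after a week of drug exposure.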

Work on `O=C(C=Cn1cnc(-c2cc(C(F)(F)F)cc(C(F)(F)F)c2)n1)NNc1cnccn1` + CC(CO)NC(=O)c1cc(-c2ccc(Cl)cc2)nn(-c2cnn(C)c2)c1=O yielded an IC50 (second compound 0.1 µM) of 0.0816 µM, an IC50 (second compound 0.316 µM) of 0.0294 µM and an IC50 (second compound 1 µM) of 0.0233 µM. The IC50 (second compound 3.16 µM) was 0.0218 µM, the IC50 (second compound 10 µM) was 0.0125 µM and the viability, T/C (second compound 0.1 µM, first compound 0.00949 µM) was 59.2%. It also gave a viability, T/C (second compound 0.1 µM, first compound 0.03 µM) of 58.6%, a viability, T/C (second compound 0.1 µM, first compound 0.0949 µM) of 42.9% and a viability, T/C (second compound 0.1 µM, first compound 0.3 µM) of 45.7%. The viability, T/C (second compound 0.1 µM, first compound 0.949 µM) was 39.4%, the viability, T/C (second compound 0.1 µM, first compound 3 µM) was 29.1% and the viability, T/C (second compound 0.316 µM, first compound 0.00949 µM) was 85.6%. The viability, T/C (second compound 0.316 µM, first compound 0.03 µM) was 44.6%, the viability, T/C (second compound 0.316 µM, first compound 0.0949 µM) was 43.8% and the viability, T/C (second compound 0.316 µM, first compound 0.3 µM) was 38%. It also gave a viability, T/C (second compound 0.316 µM, first compound 0.949 µM) of 37.7%, a viability, T/C (second compound 0.316 µM, first compound 3 µM) of 23.9% and a viability, T/C (second compound 1 µM, first compound 0.00949 µM) of 62.8%. For the same compound, the viability, T/C (second compound 1 µM, first compound 0.03 µM) was 40.3%, the viability, T/C (second compound 1 µM, first compound 0.0949 µM) was 38.9% and the viability, T/C (second compound 1 µM, first compound 0.3 µM) was 38.8%. For the same compound, the viability, T/C (second compound 1 µM, first compound 0.949 µM) was 34.6%, the viability, T/C (second compound 1 µM, first compound 3 µM) was 21.7% and the viability, T/C (second compound 3.16 µM, first compound 0.00949 µM) was 58.9%. For the same compound, the viability, T/C (second compound 3.16 µM, first compound 0.03 µM) was 38.7%, the viability, T/C (second compound 3.16 µM, first compound 0.0949 µM) was 50.4% and the viability, T/C (second compound 3.16 µM, first compound 0.3 µM) was 29.4%. The viability, T/C (second compound 3.16 µM, first compound 0.949 µM) was 27.6%, the viability, T/C (second compound 3.16 µM, first compound 3 µM) was 25.6% and the viability, T/C (second compound 10 µM, first compound 0.00949 µM) was 52.7%. For the same compound, the viability, T/C (second compound 10 µM, first compound 0.03 µM) was 42.1%, the viability, T/C (second compound 10 µM, first compound 0.0949 µM) was 27.5% and the viability, T/C (second compound 10 µM, first compound 0.3 µM) was 26.7%. For the same compound, the viability, T/C (second compound 10 µM, first compound 0.949 µM) was 22.4% and the viability, T/C (second compound 10 µM, first compound 3 µM) was 17.7%.
`CC(C)c1c(-c2ccccc2)nc2c(C#N)c[nH]n2c1=O` + Cc1cncc(-c2nc(NCCc3c[nH]c4ccccc34)c3ncn(C(C)C)c3n2)c1 gave an IC50 (second compound 0.1 µM) greater than 10 µM, an IC50 (second compound 0.316 µM) greater than 10 µM and an IC50 (second compound 1 µM) greater than 10 µM. For the same compound, the IC50 (second compound 3.16 µM) was greater than 10 µM, the IC50 (second compound 10 µM) was greater than 10 µM and the viability, T/C [1] was 96.9%. For the same compound, the viability, T/C [2] was 112%, the viability, T/C [3] was 114% and the viability, T/C [4] was 101%. The viability, T/C (second compound 0.1 µM, first compound 3.16 µM) was 98.7%, the viability, T/C (second compound 0.1 µM, first compound 10 µM) was 94.6% and the viability, T/C [5] was 101%. For the same compound, the viability, T/C [6] was 137%, the viability, T/C [7] was 98.9% and the viability, T/C [8] was 106%. It also gave a viability, T/C (second compound 0.316 µM, first compound 3.16 µM) of 95.7%, a viability, T/C (second compound 0.316 µM, first compound 10 µM) of 94.6% and a viability, T/C [9] of 133%. For the same compound, the viability, T/C [10] was 142%, the viability, T/C [11] was 127% and the viability, T/C [12] was 112%. For the same compound, the viability, T/C (second compound 1 µM, first compound 3.16 µM) was 106%, the viability, T/C (second compound 1 µM, first compound 10 µM) was 105% and the viability, T/C [13] was 169%. For the same compound, the viability, T/C [14] was 151%, the viability, T/C [15] was 146% and the viability, T/C [16] was 134%. For the same compound, the viability, T/C (second compound 3.16 µM, first compound 3.16 µM) was 131%, the viability, T/C (second compound 3.16 µM, first compound 10 µM) was 136% and the viability, T/C [17] was 134%. It also gave a viability, T/C [18] of 147%, a viability, T/C [19] of 153% and a viability, T/C [20] of 143%. The viability, T/C (second compound 10 µM, first compound 3.16 µM) was 118% and the viability, T/C (second compound 10 µM, first compound 10 µM) was 124%.
In the case of `Nc1ncn(C2CC(O)C(CO)O2)c(=O)n1` (stereo not given) + CC(CO)NC(=O)c1cc(-c2ccc(Cl)cc2)nn(-c2cnn(C)c2)c1=O, the IC50 (second compound 0.1 µM) is reported as 0.621 µM, the IC50 (second compound 0.316 µM) is reported as 0.652 µM and the IC50 (second compound 1 µM) is reported as greater than 1 µM. It also gave an IC50 (second compound 3.16 µM) of 0.803 µM, an IC50 (second compound 10 µM) greater than 1 µM and a viability, T/C (second compound 0.1 µM, first compound 0.00316 µM) of 113%. It also gave a viability, T/C (second compound 0.1 µM, first compound 0.01 µM) of 105%, a viability, T/C [1] of 106% and a viability, T/C [2] of 70.9%. For the same compound, the viability, T/C [3] was 67.9%, the viability, T/C [4] was 40.1% and the viability, T/C (second compound 0.316 µM, first compound 0.00316 µM) was 97.2%. The viability, T/C (second compound 0.316 µM, first compound 0.01 µM) was 107%, the viability, T/C [5] was 107% and the viability, T/C [6] was 70.8%. For the same compound, the viability, T/C [7] was 68.1%, the viability, T/C [8] was 41.2% and the viability, T/C (second compound 1 µM, first compound 0.00316 µM) was 111%. The viability, T/C (second compound 1 µM, first compound 0.01 µM) was 85.7%, the viability, T/C [9] was 120% and the viability, T/C [10] was 78.6%. The viability, T/C [11] was 67.8%, the viability, T/C [12] was 50.8% and the viability, T/C (second compound 3.16 µM, first compound 0.00316 µM) was 98.2%. It also gave a viability, T/C (second compound 3.16 µM, first compound 0.01 µM) of 95.2%, a viability, T/C [13] of 87.3% and a viability, T/C [14] of 87.1%. The viability, T/C [15] was 64.7%, the viability, T/C [16] was 46.4% and the viability, T/C (second compound 10 µM, first compound 0.00316 µM) was 83.3%. It also gave a viability, T/C (second compound 10 µM, first compound 0.01 µM) of 87%, a viability, T/C [17] of 74.1% and a viability, T/C [18] of 80.2%. It also gave a viability, T/C [19] of 62.4% and a viability, T/C [20] of 51%.

Reference: PubChem BioAssay AID1918998 (Molecular Pharmacology Branch, DTP, NCI, 2023)
